Experimental data as given in article PMC7827406, “Structure–Activity Relationship (SAR) Study of Spautin-1 to Entail the Discovery of Novel NEK4 Inhibitors” (International Journal of Molecular Sciences, 2021).
Read-outs that look alike come from different tables or passages of the source.

Key:
Test in all cases: biochemical
Set-up in all cases: Eurofins KinaseProfiler full panel at Km ATP, residual kinase activity (%) relative to DMSO
[1] = target: T1, c-RAF(h) (Homo sapiens, UniProt P04049)
T1 construct: gene RAF1
How it was run: (§1)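 Two 10 µM single-concentration screens were run: a competition-binding screen, in which DNA-tagged kinase bound to immobilized ligands was quantified by qPCR, and a radiometric activity panel at Km ATP. Each is expressed as residual kinase activity (%).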

[2] = target: T2, Aurora-C(h) (Homo sapiens, UniProt Q9UQB9)
T2 construct: gene AURKC
T2 sequence (Q9UQB9 1-309): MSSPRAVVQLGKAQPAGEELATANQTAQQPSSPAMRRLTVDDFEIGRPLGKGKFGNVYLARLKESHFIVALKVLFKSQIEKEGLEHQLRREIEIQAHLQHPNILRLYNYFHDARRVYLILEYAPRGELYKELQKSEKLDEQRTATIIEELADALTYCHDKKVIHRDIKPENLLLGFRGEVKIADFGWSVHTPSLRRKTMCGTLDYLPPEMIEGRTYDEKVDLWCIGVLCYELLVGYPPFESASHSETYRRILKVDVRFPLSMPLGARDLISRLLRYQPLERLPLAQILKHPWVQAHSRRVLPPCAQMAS
How it was run: as §1

[3] = target: T3, MSK2(h) (Homo sapiens, UniProt O75676)
T3 construct: gene RPS6KA4
How it was run: as §1

[4] = target: T4, Pim-2(h) (Homo sapiens, UniProt Q9P1W9)
T4 construct: gene PIM2
How it was run: as §1

[5] = target: T5, cKit(V560G)(h) (Homo sapiens, UniProt P10721, V560G)
T5 construct: gene KIT
How it was run: as §1

[6] = target: T6, Snk(h) (Homo sapiens, UniProt Q9NYY3)
T6 construct: gene PLK2
How it was run: as §1

[7] = target: T7, CaMKIγ(h) (Homo sapiens, UniProt Q96NX5)
T7 construct: gene CAMK1G
How it was run: as §1

[8] = target: NEK6(h) (Homo sapiens, UniProt Q9HC98)
How it was run: as §1

[9] = target: T8, PKR(h) (Homo sapiens, UniProt P19525)
T8 construct: gene EIF2AK2
How it was run: as §1

[10] = target: T9, ACK1(h) (Homo sapiens, UniProt Q07912)
T9 construct: gene TNK2
How it was run: as §1

[11] = target: CDKL1(h) (Homo sapiens, UniProt Q00532)
How it was run: as §1

[12] = target: GRK6(h) (Homo sapiens, UniProt P43250)
How it was run: as §1

[13] = target: T10, TrkB(h) (Homo sapiens, UniProt Q16620)
T10 construct: gene NTRK2
How it was run: as §1

[14] = target: T11, Abl(Y253F)(h) (Homo sapiens, UniProt P00519, Y253F)
T11 construct: gene ABL1
How it was run: as §1

[15] = target: T12, PI3 Kinase (p110b/p85a)(h) (Homo sapiens, UniProt P42338)
T12 construct: gene PIK3CB
How it was run: as §1

[16] = target: T13, PDGFRα(D842V)(h) (Homo sapiens, UniProt P16234, D842V)
T13 construct: gene PDGFRA
How it was run: as §1

[17] = target: T14, GCN2(h) (Homo sapiens, UniProt Q9P2K8)
T14 construct: gene EIF2AK4
How it was run: as §1

[18] = target: LRRK2(h) (Homo sapiens, UniProt Q5S007)
How it was run: as §1

[19] = read-out: Residual activity (%) Spautin-1 5aa
[20] = read-out: Residual activity (%) 5as
[21] = read-out: Residual activity (%) 5at
[22] = read-out: Residual activity (%) 5ay

T4 sequence (Q9P1W9 whole entry): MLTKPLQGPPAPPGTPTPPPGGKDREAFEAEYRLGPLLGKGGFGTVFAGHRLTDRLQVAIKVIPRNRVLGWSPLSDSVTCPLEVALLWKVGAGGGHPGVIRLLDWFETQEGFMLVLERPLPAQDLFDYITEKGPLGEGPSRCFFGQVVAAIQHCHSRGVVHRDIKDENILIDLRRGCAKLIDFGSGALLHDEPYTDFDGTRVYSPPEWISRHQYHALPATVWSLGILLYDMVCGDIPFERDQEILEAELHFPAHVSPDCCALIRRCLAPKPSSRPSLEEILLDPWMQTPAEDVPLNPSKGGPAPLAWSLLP
NEK6(h), sequence (Q9HC98 whole entry): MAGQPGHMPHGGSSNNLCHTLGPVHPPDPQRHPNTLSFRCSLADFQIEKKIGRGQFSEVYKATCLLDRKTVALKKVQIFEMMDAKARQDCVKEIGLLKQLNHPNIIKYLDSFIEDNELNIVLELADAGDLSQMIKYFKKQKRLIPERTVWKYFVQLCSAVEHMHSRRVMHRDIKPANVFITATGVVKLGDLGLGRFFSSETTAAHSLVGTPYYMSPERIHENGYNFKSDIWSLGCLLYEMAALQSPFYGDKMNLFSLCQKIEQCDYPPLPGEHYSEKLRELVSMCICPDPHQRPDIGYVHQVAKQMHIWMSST
T14 sequence (Q9P2K8 whole entry): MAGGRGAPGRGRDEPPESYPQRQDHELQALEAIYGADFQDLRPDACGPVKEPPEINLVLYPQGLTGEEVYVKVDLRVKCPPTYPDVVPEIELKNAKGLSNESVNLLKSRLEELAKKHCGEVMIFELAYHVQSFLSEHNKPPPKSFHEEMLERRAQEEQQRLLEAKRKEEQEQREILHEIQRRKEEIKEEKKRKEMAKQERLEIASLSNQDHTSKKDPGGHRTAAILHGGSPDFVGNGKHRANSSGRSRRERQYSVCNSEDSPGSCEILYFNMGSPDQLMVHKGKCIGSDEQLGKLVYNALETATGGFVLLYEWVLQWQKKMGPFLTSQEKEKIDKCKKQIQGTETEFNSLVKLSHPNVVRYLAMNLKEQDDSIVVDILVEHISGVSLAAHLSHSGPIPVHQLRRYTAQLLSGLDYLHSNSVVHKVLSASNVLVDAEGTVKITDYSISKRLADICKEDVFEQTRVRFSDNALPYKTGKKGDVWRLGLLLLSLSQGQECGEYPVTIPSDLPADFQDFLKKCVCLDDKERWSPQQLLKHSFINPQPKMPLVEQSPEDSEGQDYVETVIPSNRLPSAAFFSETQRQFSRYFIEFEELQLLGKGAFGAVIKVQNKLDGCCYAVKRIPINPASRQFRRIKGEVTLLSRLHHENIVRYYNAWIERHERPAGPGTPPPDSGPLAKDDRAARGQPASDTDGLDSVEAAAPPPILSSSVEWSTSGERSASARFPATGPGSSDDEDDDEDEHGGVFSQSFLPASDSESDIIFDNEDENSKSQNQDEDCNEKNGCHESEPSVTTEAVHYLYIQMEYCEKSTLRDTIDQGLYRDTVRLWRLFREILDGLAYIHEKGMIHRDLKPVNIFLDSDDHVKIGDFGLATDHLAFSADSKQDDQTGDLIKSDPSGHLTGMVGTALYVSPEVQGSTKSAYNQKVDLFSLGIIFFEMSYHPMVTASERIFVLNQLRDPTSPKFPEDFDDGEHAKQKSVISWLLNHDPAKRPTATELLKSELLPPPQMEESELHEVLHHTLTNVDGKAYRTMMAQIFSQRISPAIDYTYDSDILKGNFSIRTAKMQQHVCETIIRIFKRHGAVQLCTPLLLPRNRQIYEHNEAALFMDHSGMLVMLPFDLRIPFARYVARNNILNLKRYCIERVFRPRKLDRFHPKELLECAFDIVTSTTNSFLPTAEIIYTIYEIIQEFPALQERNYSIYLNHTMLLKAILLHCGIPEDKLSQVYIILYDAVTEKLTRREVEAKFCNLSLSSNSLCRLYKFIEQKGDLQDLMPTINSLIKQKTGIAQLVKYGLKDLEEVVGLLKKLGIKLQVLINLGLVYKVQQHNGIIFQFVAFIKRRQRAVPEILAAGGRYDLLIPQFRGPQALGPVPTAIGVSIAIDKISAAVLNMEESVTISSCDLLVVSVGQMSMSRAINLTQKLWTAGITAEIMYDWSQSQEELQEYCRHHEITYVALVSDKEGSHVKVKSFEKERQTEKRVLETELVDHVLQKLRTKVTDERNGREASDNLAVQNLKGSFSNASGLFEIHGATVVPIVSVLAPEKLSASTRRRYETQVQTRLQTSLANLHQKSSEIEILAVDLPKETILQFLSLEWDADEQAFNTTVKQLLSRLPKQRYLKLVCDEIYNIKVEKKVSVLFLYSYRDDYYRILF
T12 sequence (P42338 whole entry): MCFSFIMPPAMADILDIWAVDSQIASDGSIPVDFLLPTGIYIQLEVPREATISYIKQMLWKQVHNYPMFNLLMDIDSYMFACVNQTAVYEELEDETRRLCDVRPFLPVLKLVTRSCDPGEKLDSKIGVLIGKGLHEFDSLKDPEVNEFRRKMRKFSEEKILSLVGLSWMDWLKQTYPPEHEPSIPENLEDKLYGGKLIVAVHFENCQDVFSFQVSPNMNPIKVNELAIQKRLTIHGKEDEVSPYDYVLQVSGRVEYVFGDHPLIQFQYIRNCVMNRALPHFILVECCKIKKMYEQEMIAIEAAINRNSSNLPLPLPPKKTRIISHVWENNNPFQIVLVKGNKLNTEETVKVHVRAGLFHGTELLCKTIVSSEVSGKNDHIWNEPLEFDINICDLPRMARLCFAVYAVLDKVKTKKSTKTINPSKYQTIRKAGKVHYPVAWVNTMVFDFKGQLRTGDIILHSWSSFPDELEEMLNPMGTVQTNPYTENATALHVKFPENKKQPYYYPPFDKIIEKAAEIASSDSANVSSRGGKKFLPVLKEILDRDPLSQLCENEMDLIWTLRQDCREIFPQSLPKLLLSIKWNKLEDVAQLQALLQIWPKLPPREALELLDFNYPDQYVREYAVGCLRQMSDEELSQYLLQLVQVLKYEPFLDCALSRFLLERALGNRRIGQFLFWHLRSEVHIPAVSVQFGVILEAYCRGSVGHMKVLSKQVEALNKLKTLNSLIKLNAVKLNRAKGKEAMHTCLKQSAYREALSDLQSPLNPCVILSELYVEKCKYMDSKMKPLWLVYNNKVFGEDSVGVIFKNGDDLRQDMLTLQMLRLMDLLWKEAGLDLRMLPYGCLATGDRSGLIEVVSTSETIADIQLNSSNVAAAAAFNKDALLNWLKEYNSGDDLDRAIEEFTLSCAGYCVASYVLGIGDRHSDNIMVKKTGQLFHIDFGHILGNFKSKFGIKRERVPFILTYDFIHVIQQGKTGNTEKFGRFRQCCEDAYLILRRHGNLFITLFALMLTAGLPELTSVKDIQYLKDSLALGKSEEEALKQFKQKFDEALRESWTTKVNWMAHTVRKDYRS
T12 sequence (P27986 whole entry partner): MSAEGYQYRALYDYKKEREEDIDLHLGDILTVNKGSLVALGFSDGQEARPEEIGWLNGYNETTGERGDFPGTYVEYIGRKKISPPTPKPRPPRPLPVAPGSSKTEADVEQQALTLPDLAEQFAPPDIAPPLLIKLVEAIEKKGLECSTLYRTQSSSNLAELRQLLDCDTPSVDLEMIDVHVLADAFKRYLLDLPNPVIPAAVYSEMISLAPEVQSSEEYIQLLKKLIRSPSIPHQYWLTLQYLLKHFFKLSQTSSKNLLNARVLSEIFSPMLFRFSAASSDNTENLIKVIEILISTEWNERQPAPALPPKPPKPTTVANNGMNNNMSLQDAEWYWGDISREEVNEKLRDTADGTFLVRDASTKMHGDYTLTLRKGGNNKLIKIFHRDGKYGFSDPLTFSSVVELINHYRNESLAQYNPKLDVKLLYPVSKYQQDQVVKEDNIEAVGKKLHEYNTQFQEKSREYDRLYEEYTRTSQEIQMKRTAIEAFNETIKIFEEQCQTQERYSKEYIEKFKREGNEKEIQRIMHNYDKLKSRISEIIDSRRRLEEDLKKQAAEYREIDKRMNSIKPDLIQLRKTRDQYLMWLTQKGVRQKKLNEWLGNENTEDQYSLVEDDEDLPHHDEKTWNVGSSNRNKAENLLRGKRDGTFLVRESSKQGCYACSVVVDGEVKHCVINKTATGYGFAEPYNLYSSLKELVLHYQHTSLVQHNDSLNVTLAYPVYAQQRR
GRK6(h), sequence (P43250 whole entry): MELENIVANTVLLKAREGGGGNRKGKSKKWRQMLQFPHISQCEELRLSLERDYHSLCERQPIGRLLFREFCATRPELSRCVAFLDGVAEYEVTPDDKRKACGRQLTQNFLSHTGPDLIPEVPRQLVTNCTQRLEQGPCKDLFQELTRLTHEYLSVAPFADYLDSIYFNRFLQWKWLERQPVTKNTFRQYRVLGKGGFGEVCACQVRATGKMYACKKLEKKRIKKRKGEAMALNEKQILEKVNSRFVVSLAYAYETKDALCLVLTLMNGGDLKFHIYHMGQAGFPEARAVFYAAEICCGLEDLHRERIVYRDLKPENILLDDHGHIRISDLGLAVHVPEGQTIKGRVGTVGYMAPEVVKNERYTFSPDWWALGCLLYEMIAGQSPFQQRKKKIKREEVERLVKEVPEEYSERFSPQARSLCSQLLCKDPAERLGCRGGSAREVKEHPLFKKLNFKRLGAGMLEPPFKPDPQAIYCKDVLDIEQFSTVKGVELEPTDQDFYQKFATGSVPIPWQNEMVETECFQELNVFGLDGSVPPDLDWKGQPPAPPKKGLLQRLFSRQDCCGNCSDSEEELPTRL
CDKL1(h), sequence (Q00532 whole entry): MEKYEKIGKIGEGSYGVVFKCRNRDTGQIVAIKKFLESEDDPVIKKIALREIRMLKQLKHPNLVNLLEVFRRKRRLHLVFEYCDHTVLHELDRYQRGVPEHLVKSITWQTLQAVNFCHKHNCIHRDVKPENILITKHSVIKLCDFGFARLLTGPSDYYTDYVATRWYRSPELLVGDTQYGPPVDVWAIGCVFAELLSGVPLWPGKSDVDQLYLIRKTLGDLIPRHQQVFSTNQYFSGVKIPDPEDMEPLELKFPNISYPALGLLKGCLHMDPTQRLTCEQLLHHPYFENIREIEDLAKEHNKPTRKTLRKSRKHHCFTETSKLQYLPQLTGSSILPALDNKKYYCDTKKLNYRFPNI

## Fc1ccc(CNc2ncnc3ccc(F)cc23)cc1 [5aa, 6-Fluoro-N-(4-fluorobenzyl)-4-Quinazolinamine]
[1]; [19]
  remaining activity at 10 µM: 110%
[2]; [19]
  remaining activity at 10 µM: 120%
[3]; [19]
  remaining activity at 10 µM: 91%
[4]; [19]
  remaining activity at 10 µM: 80%
[5]; [19]
  remaining activity at 10 µM: 85%
[6]; [19]
  remaining activity at 10 µM: 98%
[7]; [19]
  remaining activity at 10 µM: 95%
[8]; [19]
  remaining activity at 10 µM: 103%
[9]; [19]
  remaining activity at 10 µM: 100%
[10]; [19]
  remaining activity at 10 µM: 85%
[11]; [19]
  remaining activity at 10 µM: 94%
[12]; [19]
  remaining activity at 10 µM: 100%
[13]; [19]
  remaining activity at 10 µM: 87%
[14]; [19]
  remaining activity at 10 µM: 106%
[15]; [19]
  remaining activity at 10 µM: 102%
[16]; [19]
  remaining activity at 10 µM: 114%
[17]; [19]
  remaining activity at 10 µM: 85%
[18]; [19]
  remaining activity at 10 µM: 91%

## Fc1ccc(CCNc2ncnc3ccc(F)cc23)cc1 [5as, 6-Fluoro-N-[2-(4-Fluorophenyl)Ethyl]-4-Quinazolinamine]
[1]; [20]
  remaining activity at 10 µM: 114%
[2]; [20]
  remaining activity at 10 µM: 102%
[3]; [20]
  remaining activity at 10 µM: 96%
[4]; [20]
  remaining activity at 10 µM: 73%
[5]; [20]
  remaining activity at 10 µM: 105%
[6]; [20]
  remaining activity at 10 µM: 89%
[7]; [20]
  remaining activity at 10 µM: 94%
[8]; [20]
  remaining activity at 10 µM: 94%
[9]; [20]
  remaining activity at 10 µM: 98%
[10]; [20]
  remaining activity at 10 µM: 84%
[11]; [20]
  remaining activity at 10 µM: 111%
[12]; [20]
  remaining activity at 10 µM: 104%
[13]; [20]
  remaining activity at 10 µM: 81%
[14]; [20]
  remaining activity at 10 µM: 91%
[15]; [20]
  remaining activity at 10 µM: 99%
[16]; [20]
  remaining activity at 10 µM: 92%
[17]; [20]
  remaining activity at 10 µM: 85%
[18]; [20]
  remaining activity at 10 µM: 91%

## Fc1ccc2ncnc(NCCc3ccc(Cl)cc3)c2c1 [5at, N-[2-(4-Chlorophenyl)Ethyl]-6-Fluoro-4-Quinazolinamine]
[1]; [21]
  remaining activity at 10 µM: 117%
[2]; [21]
  remaining activity at 10 µM: 118%
[3]; [21]
  remaining activity at 10 µM: 97%
[4]; [21]
  remaining activity at 10 µM: 70%
[5]; [21]
  remaining activity at 10 µM: 90%
[6]; [21]
  remaining activity at 10 µM: 100%
[7]; [21]
  remaining activity at 10 µM: 87%
[8]; [21]
  remaining activity at 10 µM: 79%
[9]; [21]
  remaining activity at 10 µM: 94%
[10]; [21]
  remaining activity at 10 µM: 71%
[11]; [21]
  remaining activity at 10 µM: 111%
[12]; [21]
  remaining activity at 10 µM: 99%
[13]; [21]
  remaining activity at 10 µM: 81%
[14]; [21]
  remaining activity at 10 µM: 71%
[15]; [21]
  remaining activity at 10 µM: 93%
[16]; [21]
  remaining activity at 10 µM: 86%
[17]; [21]
  remaining activity at 10 µM: 97%
[18]; [21]
  remaining activity at 10 µM: 101%

## COc1ccc2ncnc(Nc3cccc(F)c3)c2c1 [5ay, N-(3-Fluorophenyl)-6-Methoxy-4-Quinazolinamine]
[1]; [22]
  remaining activity at 10 µM: 102%
[2]; [22]
  remaining activity at 10 µM: 106%
[3]; [22]
  remaining activity at 10 µM: 88%
[4]; [22]
  remaining activity at 10 µM: 76%
[5]; [22]
  remaining activity at 10 µM: 106%
[6]; [22]
  remaining activity at 10 µM: 80%
[7]; [22]
  remaining activity at 10 µM: 94%
[8]; [22]
  remaining activity at 10 µM: 91%
[9]; [22]
  remaining activity at 10 µM: 71%
[10]; [22]
  remaining activity at 10 µM: 56%
[11]; [22]
  remaining activity at 10 µM: 119%
[12]; [22]
  remaining activity at 10 µM: 110%
[13]; [22]
  remaining activity at 10 µM: 96%
[14]; [22]
  remaining activity at 10 µM: 66%
[15]; [22]
  remaining activity at 10 µM: 103%
[16]; [22]
  remaining activity at 10 µM: 50%
[17]; [22]
  remaining activity at 10 µM: 83%
[18]; [22]
  remaining activity at 10 µM: 44%
